In the supplement of paper PMC10290057:
Structures can show the parent of a compound that is named as a salt.

How the values were obtained:
[1] = test system: HCT116; experiment: AC50 cell viability (CellTiter-Glo); higher = less potent; settings: 48 h
[2] = test system: HCT116; experiment: efficacy (fitted maximal change in viability relative to DMSO control); higher = less cytotoxic (negative = loss of viability); settings: 48 h
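For AC50 cell viability (CellTiter-Glo) in this document: HCT116 colorectal carcinoma cells screened at five concentrations per compound, luminescent viability scaled between DMSO wells and empty wells on each plate, curves fitted per compound.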
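For efficacy (fitted maximal change in viability relative to DMSO control) in this document: Luminescence-based viability readout, five doses per compound, normalized against on-plate DMSO and empty-well controls, followed by dose-response curve fitting for every drug.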

SMILES | AC50 cell viability [1] [µM] | efficacy [2] [%]
CN[C@H]1CC[C@@H](c2ccc(Cl)c(Cl)c2)c2ccccc21 [Sertraline hydrochloride] | 20.9 | -98.8
O=C(O)c1ccc2c(c1)nc(Nc1cccc(Cl)c1)c1ccncc12 [Silmitasertib] | 5.9 | -87.1
CN1CCN(c2ncc(-c3cc(Cl)cc(Cl)c3Cl)c(N)n2)CC1 [Sipatrigine] | 18.6 | -74.6
COCCNCc1ccc(-c2cc3nccc(Oc4ccc(NC(=O)C5(C(=O)Nc6ccc(F)cc6)CC5)cc4F)c3s2)nc1 [Sitravatinib] | 6.61 | -104
Cc1c(C(=O)Nc2ccc(N3C[C@@H](C)O[C@@H](C)C3)nc2)cccc1-c1ccc(OC(F)(F)F)cc1 [Sonidegib] | 20.9 | -74.9
CNC(=O)c1cc(Oc2ccc(NC(=O)Nc3ccc(Cl)c(C(F)(F)F)c3)cc2)ccn1 [Sorafenib] | 9.34 | -95
CN1CCN(CC1)C2=NC3=C(C=CC=C3)C(=N2)C/4=C(/C(=O)NC4=O)C5=C[NH]C6=C5C=CC=C6 [Sotrastaurin] | 23.5 | -83.5
Fc1ccc(CNc2ncnc3ccc(F)cc23)cc1 [Spautin-1] | 1.48 | -34.2
C=CC(=O)Nc1cccc(Nc2nc(Nc3ccc(OCCOC)cc3)ncc2F)c1 [Spebrutinib (AVL-292)] | 14.8 | -107
NCCCCNCCCN [Spermidine] | 23.5 | -78.6
CO[C@@H]1C(N(C)C(=O)c2ccccc2)C[C@H]2O[C@]1(C)n1c3ccccc3c3c4c(c5c6ccccc6n2c5c31)C(=O)NC4=O (some centres not stated) [Stauprimide] | 1.66 | -50
CN[C@@H]1C[C@H]2O[C@@](C)([C@@H]1OC)n1c3ccccc3c3c4c(c5c6ccccc6n2c5c31)C(=O)NC4 [Staurosporine] | 0.0468 | -89.4
CC(C)n1cnc2c(NCCc3ccc(O)cc3)nc(-c3csc4ccccc34)nc21 [StemRegenin 1] | 18.6 | -91.3
C[C@@H]1O[C@@H](O[C@H]2C[C@@H](O)[C@]3(CO)[C@H]4[C@H](O)C[C@]5(C)[C@H](CC[C@]5(O)[C@@H]4CC[C@]3(O)C2)C/6=C/C(=O)OC6)[C@H](O)[C@H](O)[C@H]1O [Strophantine octahydrate] | 0.0263 | -75.8
CONC(=O)Nc1ccc(-c2sc3c(c2CN(C)Cc2ccccc2)c(=O)n(-c2ccccc2)c(=O)n3Cc2c(F)cccc2F)cc1 [Sufugolix] | 16.6 | -35.8
Cc1cc2cc(Oc3ccnc(Nc4cccc(C[S+](=O)([O-])NCCN(C)C)c4)n3)ccc2[nH]1 [Sulfatinib] | 11.8 | -101
CCN(CC)CCNC(=O)c1c(C)[nH]c(/C=C2\C(=O)Nc3ccc(F)cc32)c1C [Sunitinib malate] | 3.32 | -98.2
Fc1ccc(-c2nc(-c3ccccc3F)[nH]c2-c2ccncc2)cc1 [TA02] | 16.6 | -48.4
COc1cc(N2CCC(N3CCN(C)CC3)CC2)ccc1Nc1ncc(Cl)c(Nc2ccccc2[S+](=O)([O-])C(C)C)n1 [TAE-684] | 1.18 | -110

SMILES | AC50 cell viability [1] [µM] | efficacy [2] [%]
CC(C)(O)CC(=O)NCCn1ccc2ncnc(Nc3ccc(Oc4cccc(C(F)(F)F)c4)c(Cl)c3)c21 [TAK-285] | 16.6 | -101
Cc1cc(C(=O)Nc2cc(Oc3ccc4nc(NC(=O)C5CC5)cn4n3)ccc2C)n(C)n1 [TAK-593] | 14.8 | -56.7
CCc1nc(-c2cccc(C)c2)c(-c2ccnc(NC(=O)c3ccccc3)c2)s1 [TAK-715] | 26.3 | -72.7
CC[S+](=O)([O-])c1cccc(-c2cc(C(=O)NC3CCN(C)CC3)c(C)c3[nH]c4ncc(C)cc4c23)c1 [TAK-901] | 0.417 | -76.3
CC1=N[NH]C=C1C2=CC\3=C(S2)C(=O)NC(=N3)\[C@@H]4CC5CCN4CC5 [TAK-931] | 2.63 | -65.2
COc1cc(C(=O)NC2CCN(C)CC2)c(F)cc1Nc1ncc2c(n1)N(C1CCCC1)CC(F)(F)C(=O)N2C [TAK-960] | 1.32 | -120
CCc1cc(C(N)=O)ccc1-n1nc(C(C)C)c2c(-n3cnc(-c4cnn(C)c4)c3)ccnc21 [TAS-116] | 1.05 | -65.3
Oc1ccc(-c2ccc(-c3cc(Nc4cccc(CNC5CC5)c4)[nH]n3)cc2)c(O)c1 [TCS-2312] | 3.32 | -77.1
N#Cc1c(NC(=O)c2cccc3ccccc23)sc2c1CCCC2 [TCS-JNK-5a] | 0.417 | -61.6
CCN1/C(=C/C(C)=O)Sc2ccc(OC)cc21 [TG-003] | 14.8 | -41.4
Cc1cnc(Nc2ccc(CN3CCOCC3)cc2)nc1Nc1cccc([S+](=O)([O-])NC(C)(C)C)c1 [TG-46] | 2.63 | -97.9
Cc1cnc(Nc2cccc(CN3CCOCC3)c2)nc1Nc1cccc([S+](=O)([O-])NC(C)(C)C)c1 [TG-89] | 1.66 | -35.5
CC(NC1=CC=CC=C1)C\2=C\C(=C/N3C(=O)\C=C(/N=C23)N4CCOCC4)C (configuration not stated) [TGX-221] | 18.6 | -44.2
CN(C)C/C=C/C(=O)Nc1ccc(C(=O)Nc2cccc(Nc3ncc(Cl)c(-c4c[nH]c5ccccc45)n3)c2)cc1 [THZ1] | 0.0661 | -67.4
CN(C)C/C=C/C(=O)Nc1ccc(C(=O)N2CCC[C@@H](Nc3ncc(Cl)c(-c4c[nH]c5ccccc45)n3)C2)cc1 [THZ531] | 0.132 | -74.2
CN(C)C/C=C/C(=O)Nc1cccc(C(=O)Nc2cccc(Nc3ncc(Cl)c(-c4c[nH]c5ccccc45)n3)c2)c1 [THZ-2] | 0.0934 | -78.8
CC1=CC=CC=C1CN2C(=O)C/3=C(/CCN(CC4=CC=CC=C4)C3)N\5CC\N=C25 [TIC-10] | 2.95 | -62.1
CN1CCN(Cc2ccc(Nc3ncc(Cl)/c(=N\c4ccccc4[S+](=O)([O-])N(C)C)[nH]3)cc2)CC1 [TP-0903] | 0.027 | -65.8
CC(C)(O)[C@H]1CC[C@H](Nc2ccc3ncc(-c4cccc(C(F)(F)F)c4)n3n2)CC1 [TP-3654] | 1.66 | -43.7

SMILES | AC50 cell viability [1] [µM] | efficacy [2] [%]
NC(=O)Nc1sc(-c2ccc(F)cc2)cc1C(N)=O [TPCA-1] | 14.8 | -74.4
Cc1ccc([S+](=O)([O-])N[C@@H](Cc2ccccc2)C(=O)CCl)cc1 [TPCK] | 18.6 | -77.8
CCC(=O)N1CCOc2c(cc(-c3cc(OC)cc(OC)c3)cc2C(=O)N[C@H]2CCCN(C)C2)C1 [TPOP-146] | 20.9 | -79.1
C[C@H]1CNC(=O)c2cnn3ccc(nc23)N[C@H](C)c2cc(F)ccc2O1 [TPX-0005] | 2.35 | -87.5
Clc1ccccc1C(c1ccccc1)(c1ccccc1)n1cccn1 [TRAM-34] | 18.6 | -41.5
CC(C)c1ccccc1Cc1cc(C(=O)Nc2ccc([S+](=O)([O-])c3ccccc3C(C)(C)C)cc2)c(O)c(O)c1O [TW-37] | 20.9 | -90.9
Nc1cccc(-c2cc3c(Oc4cccc(O)c4)ncnc3[nH]2)c1 [TWS-119] | 11.8 | -90.2
CC(=O)Nc1ccc(C(=O)Nc2ccccc2N)cc1 [Tacedinaline] | 5.9 | -69.7
CCC(CC)C(c1ccc(Nc2nc3ccccc3s2)cc1)n1cncn1 (stereo not drawn) [Talarozole (R enantiomer)] | 20.9 | -96.4
CC/C(=C(\c1ccccc1)c1ccc(OCCN(C)C)cc1)c1ccccc1 [Tamoxifen] | 15.2 | -87.8
COc1cc2c(N3CCN(C(=O)Nc4ccc(OC(C)C)cc4)CC3)ncnc2cc1OCCCN1CCCCC1 [Tandutinib] | 18.6 | -76
C=CCNC1=C2C[C@@H](C)C[C@H](OC)[C@H](O)[C@@H](C)/C=C(\C)[C@H](OC(N)=O)[C@@H](OC)/C=C\C=C(/C)C(=O)NC(=CC1=O)C2=O [Tanespimycin] | 3.72 | -65.7
Cc1nc(-c2cn3c(n2)-c2ccc(-c4cnn(C(C)(C)C(N)=O)c4)cc2OCC3)n(C(C)C)n1 [Taselisib (GDC-0032)] | 5.9 | -77.1
CCCCCNC(=N)N/N=C/c1c[nH]c2ccc(OC)cc12 [Tegaserod maleate] | 7.42 | -92.3
CNC(=O)c1cc(COc2nnc(Nc3ccc(Cl)cc3)c3ccoc23)ccn1 [Telatinib] | 20.9 | -70.3
COc1cc([C@@H]2c3cc4c(cc3[C@@H](O[C@@H]3O[C@@H]5CO[C@@H](c6cccs6)O[C@H]5[C@H](O)[C@H]3O)[C@H]3COC(=O)[C@H]23)OCO4)cc(OC)c1O [Teniposide] | 4.17 | -104
COc1ccc(C[C@@H](C)[C@@H](C)Cc2ccc(OC)c(OC)c2)cc1OC [Terameprocol] | 1.05 | -51.5
COc1cc2c(Nc3ccc(Cl)c(Cl)c3F)ncnc2cc1OC[C@@H]1C[C@@H]2CN(C)C[C@@H]2C1 [Tesevatinib] | 10.5 | -119
